One series addresses T1, yeast 20S proteasome (Saccharomyces cerevisiae, UniProt P25043+P30656+P38624).
T1 construct: each was cocrystallized with the yeast 20S proteasome; host or cells: yeast
Kind of series: cocrystallization with 20S proteasome, X-ray crystallography. The class given is binding. The conditions noted are these: crystal structure of complex. The protocol:
To elucidate the binding mode of syringolin. A and glidobactin A to the proteasome, each was cocrystallized with the yeast 20S proteasome. Crystals of the 20S proteasome were grown in hanging drops at 24° C. as described (Grail et al. 1997. Nature 386:463-471; Groll and Huber. 2005. Methods Enzymol. 398:329-336, each which is incorporated herein by reference in its entirety) and incubated for 60 min with syringolin A or glidobactin A. The protein concentration used for crystallization was 40 mg/ml in Tris-HCI (10 mM, pH 7.5) and EDTA (1 mM). The drops contained 3 μL of protein and 2 μL of the reservoir solution (30 mM magnesium acetate, 100 mM morpholino-ethane-sulphonic acid (pH 7.2) and 10% MPD), X-ray diffraction data to 2.9 Å for the yeast 20S proteasome:syringolin A and to 2.7 Å for the 20S proteasome:glidobactin A-complex were collected using synchrotron radiation with λ=1.05 Å on the BW6-beamline at DESY/Hamburg/Germany and with λ=1.0 Å on the […] at SLS/Villingen/Switzerland, respectively. Crystals were soaked in cryoprotecting buffer (30% MPD, 20 mM magnesium acetate, 100 mM morpholino-ethane-sulfonic acid pH 6.9) and frozen in a stream of liquid nitrogen gas at 90 K (Oxford Cryo Systems). X-ray intensities were evaluated by using the DENZO program package (Otwinowski and Minor. 1997. Methods Enzymol 276:307-326) and data reduction was performed with CCP4 (Potterton et al. 2003. Acta Crystallogr. D Biol. Crystallogr. 59:1131-1137). The space group belongs to P21 with cell dimensions of about a=134 Å, b=302 Å, c=144 Å and β=112° (Table 1). The anisotropy of diffraction was corrected by an overall anisotropic temperature factor by comparing observed and calculated structure amplitudes using the program CNS (Brünger et al. 1998. Acta Crystallogr. D Biol. Crystallogr. 54: 905-921, which is incorporated herein by reference in its entirety). […]

The next series has as its system SKOV3 cells. Kind of series: Cytox-Glo cytotoxicity assay. The format is cell-based, human. Conditions: SKOV3, 1.0 μM GlbA or 25 μM SylA, 48 hours. The protocol: Determination of potential cytotoxic effects by GlbA and/or […] was carried out by using the Cytox-Glo cytotoxicity assay, which measures “dead cell proteases” from cells that have lost membrane integrity. Briefly, cells were treated with a single concentration of compound for 48 hours in a final volume of 100 μl, after which 50 μl of AAF-Glo luminogenic peptide substrate (alanyl-alanyl-phenylalanyl-aminoluciferin) was added to each well and incubated for 15 min at room temperature. The luminescence was measured by a Dynex MLX luminometer to give a reading of cells with damaged membranes. Next, 50 μl of digitonin was added to each well and the samples incubated for 15 minutes at room temperature. Luminescence was measured a second time to determine total cell number. Controls included cells with vehicle only, media, and media with compound.
SK-N-SH cells were treated with 0.25 μM GlbA or 25 μM SylA and SKOV3 cells were treated with 1.0 μM GlbA or 25 μM SylA. As illustrated in FIGS. 16A and 16B, control cells (treated with DMSO and H2O representing GlbA and SylA controls, respectively) were viable and no cytotoxicity was detected.

In series [1] the test system is poly (ADP-ribose) polymerase (PARP). Description: Western blot of PARP cleavage in SK-N-SH cells. The class given is cell-based, human. The protocol: The induction of an apoptotic response in cancer cells by the addition of syringolin A was verified by monitoring the cleavage of poly (ADP-ribose) polymerase (PARP), a common response during apoptosis. SK-N-SH cells were cultured in the presence or absence of 20 μM syringolin A for 0, 24 and 48 hours, and cell lysates were then generated as described in Example 4 and probed for the presence of PARP by Western blotting using rabbit polyclonal anti-PARP (#9542) (diluted 1:1000) and the HRP-linked anti-rabbit secondary antibody described in Example 4. The results were representative of four independent experiments. […] The treatment of cells for 48 hours further increased the levels of cleaved PARP, whereas noncleaved PARP disappeared. In a similar manner, syringolin A induced PARP cleavage in SKOV3 cells, but noncleaved PARP was still detected 48 hours after treatment (FIG. 5B).
The role of glidobactin A (GlbA) in apoptosis and its correlation with autophagy has not previously been examined. Therefore, in a series of experiments, cell lysates of SK-N-SH cells were treated with GlbA in the presence and absence of the autophagy inhibitor 3-methyladenine (3-MA) and probed for poly ADP-ribose polymerase (PARP). The cleavage of PARP produces a smaller 89 kDa fragment which is indicative of late apoptosis.

With `CCCCCCC/C=C/C=C/C(=O)N[C@H](C(=O)N[C@H]1C[C@@H](O)CCNC(=O)/C=C/[C@H](C)NC1=O)[C@@H](C)O` [glidobactin A], at yeast 20S proteasome, the “binding mode at proteasome active sites” value is “same mechanism of inactivation” and the “binding to the caspase-like active site” value was “did not bind”. Also, the cytotoxicity entry in the series with SKOV3 cells is on record as “relatively low levels of cytotoxicity”. Moreover, the PARP cleavage entry in series [1] (Example 15, single agent) was “PARP cleavage was observed”. In addition, in series [1] (GlbA with 3-MA), the “GlbA-induced PARP cleavage in presence of 3-MA” value is recorded as “slightly reduced this effect”.
With `CC(C)[C@H](NC(=O)N[C@H](C(=O)N[C@H]1/C=C/CCNC(=O)/C=C/[C@H](C(C)C)NC1=O)C(C)C)C(=O)O` [syringolin A], on yeast 20S proteasome, the “binding mode at proteasome active sites” value was “covalently binds to the hydroxy group of the active site N-terminal threonine”. Besides, in the series with SKOV3 cells, the cytotoxicity entry is on record as “relatively low levels of cytotoxicity”. The PARP cleavage entry in series [1] (20 μM, 24 and 48 hours) is “induces apoptosis-associated PARP cleavage”.

These data come from patent US8597904B2, “Pharmaceutical compositions for the treatment of conditions responsive to proteasome inhibition” (priority 2007, dated 2013).
